Laboratory results taken from paper PMC12287035, “Anticandidal activity of Clinopodium chilense essential oil” (Frontiers in Pharmacology, 2025).
In brackets after ≈: the same amount, converted by molar mass. Read-outs that look alike come from different tables or passages of the source.

What was measured:
[1] = test system: CCD 841 CoN (colon epithelial cells); test: Sulforhodamine B (SRB) cell viability assay; assay type: cell-based; conditions: Homo sapiens, 72 h, non-tumorigenic cells
Method: (§1) The cytotoxicity of C. chilense EO was evaluated in two non-tumorigenic human cell lines: CCD 841 CoN (colon epithelial cells) and HEK-293T (human embryonic kidney). All tested cell lines were obtained from the AmericanType Culture Collection (Rockville, MD, United States). The different cell lines were maintained as monolayers in a culture medium (HAM-F10 + DMEM, 1:1) supplemented with 10% fetal bovine serum, as well as antibiotics (0.01 mg/mL streptomycin and 0.005 mg/mL penicillin). The cells were incubated at 37 °C in a humidified 5% CO2 atmosphere.
(§2) To determine the effect on cell viability of C. chilense EO, the sulforhodamine B (SRB)assay was used to measure the number of viable cells after each treatment ([Silva et al., 2022]). Cells were seeded in 96-well plates at 3 × 10^3 cells/well in 100 μL of culture medium and treated in triplicate with increasing concentrations of essential oil (0.625–100 μg/mL) for 72 h at 37°C and 5% CO2. The cells which received only the medium containing 0.1% DMSO served as the control group. […] The dye is solubilized with 150 μL/well of 10 mM Tris Base, and the absorbance is then measured at a wavelength of 540 nm in a microplate reader. […]

[2] = test system: HEK-293T (human embryonic kidney); test: Sulforhodamine B (SRB) cell viability assay; assay type: cell-based; conditions: 72 h, non-tumorigenic cells
Method: as §1, §2

C. albicans (10,935) = test: Broth microdilution antifungal susceptibility (CLSI M27-A3), MIC and MFC; assay type: cell-based, Candida albicans; conditions: for MFC / MIC: Candida albicans, 48 h
Method: (§3) The antifungal activity of the EO and its main components was evaluated against reference strains and clinical isolates of Candida. The reference strains C. albicans (ATCC 7978) and C. parapsilosis (ATCC 22019) were used, as well as the clinical isolates C. albicans 10,935, C. dubliniensis 3240, Candida glabrata 10,912, C. guilliermondii 12,204, C. lusitaniae 2305, and Candida tropicalis 9841. The clinical isolates were obtained from patients of the Base Hospital of […], Los Ríos Region, Chile. After identification, the microorganisms were included in the pathogenic fungal collection (Bioassay Laboratory of University of […]íso). They are maintained in Sabouraud Dextrose Broth (SDB) with glycerol at -80°C according to established protocols ([Madrid et al., 2012]). […] Briefly, cultures of all yeast were placed on Sabouraud Dextrose Agar (SDA) and incubated for 24-72 h at temperature 37°C. Colonies of this culture were suspended in sterile 0.85% NaCl and the inoculum was standardized according to the scale of 0.5 McFarland (1-5 × 10^6 CFU/mL). The antifungal assay was conducted in 96-well plates. […] A volume of 100 μL of inoculum suspension was added to each well with the exception of the sterility control where sterile water was added to the well instead. […] Following a 24-48 h incubation at 37°C, the absorbance of the plates was measured at 540 nm using a VERSA Max microplate reader (Molecular Devices, Sunnyvale, CA, United States) for spectrophotometric analysis. […] The lowest concentration with no visible growth was defined as MFC indicating 99.5% death of the original inoculum. All experiments were performed in triplicate and repeated three times for reproducibility.

C. albicans (ATCC 7978) = test: as above; assay type: cell-based, Candida albicans; conditions: for MFC / MIC: Candida albicans
Method: as §3

[3] = test system: C. parapsilosis (ATCC 22019); test: as above; assay type: cell-based, Candida parapsilosis; conditions: Lodderomyces parapsilosis
Method: as §3

[4] = test system: C. guilliermondii (12,204); test: as above; assay type: cell-based; conditions: Meyerozyma guilliermondii, 48 h
Method: as §3

C. lusitaniae (2305) = test: as above; assay type: cell-based; conditions: for MFC / MIC: Clavispora lusitaniae, 48 h; for MFC/MIC ratio: C. lusitaniae
Method: as §3

C. tropicalis (9841) = test: as above; assay type: cell-based; conditions: Candida tropicalis, 48 h
Method: as §3

C. glabrata (10,912) = test: as above; assay type: cell-based, Candida glabrata; conditions: for MFC / MIC: Nakaseomyces glabratus, 48 h
Method: as §3

Candida spp. = test: Broth microdilution antifungal susceptibility, summary over all tested strains; assay type: cell-based; conditions: for MIC: Candida, summary over all tested strains
Method: as §3

[5] = C. albicans (10,935), clinical isolate, read-out: MFC
[6] = C. albicans (10,935), clinical isolate, read-out: MIC
[7] = ATCC7978, C. albicans (ATCC 7978), 48 h, read-out: MFC
[8] = ATCC7978, C. albicans (ATCC 7978), 48 h, read-out: MIC
[9] = ATCC22019, C. parasilopsis (ATCC 22019), 48 h, read-out: MFC
[10] = ATCC22019, C. parasilopsis (ATCC 22019), 48 h, read-out: MIC
[11] = C. guilliermondii (12,204), clinical isolate, read-out: MFC
[12] = C. guilliermondii (12,204), clinical isolate, read-out: MIC
[13] = C. lusitaniae (2305), clinical isolate, read-out: MFC
[14] = C. lusitaniae (2305), clinical isolate, read-out: MIC
[15] = C. tropicalis (9841), clinical isolate, read-out: MFC
[16] = C. tropicalis (9841), clinical isolate, read-out: MIC
[17] = C. glabrata (10,912), clinical isolate, read-out: MFC
[18] = C. glabrata (10,912), clinical isolate, read-out: MIC
[19] = as stated in the text for several or all strains
[20] = remaining species/strains, those not named with ratio 1

Compound	MFC (C. albicans (10,935); [5])	MIC (C. albicans (10,935); [6])	MFC (C. albicans (ATCC 7978); [7])	MIC (C. albicans (ATCC 7978); [8])	MFC [3, 9]	MIC [3, 10]	MFC [4, 11]	MIC [4, 12]	MFC (C. lusitaniae (2305); [13])	MIC (C. lusitaniae (2305); [14])	MFC (C. tropicalis (9841); [15])	MIC (C. tropicalis (9841); [16])	MFC (C. glabrata (10,912); [17])	MIC (C. glabrata (10,912); [18])	also measured
O=c1[nH]cc(F)c(=O)[nH]1 [5-FU, 5-fluorouracil]															IC50 [1]: 56.4 ± 0.31 µg/mL (≈ 434 µM); IC50 [2]: 18.3 ± 0.56 µg/mL (≈ 141 µM)
C[C@@H]1[C@H](O)[C@@H](C)/C=C/C=C/C=C/C=C/C=C/C=C/C=C/[C@H](O[C@@H]2O[C@H](C)[C@@H](O)[C@H](N)[C@@H]2O)C[C@@H]2O[C@](O)(C[C@@H](O)C[C@@H](O)[C@H](O)CC[C@@H](O)C[C@@H](O)CC(=O)O[C@H]1C)C[C@H](O)[C@H]2C(=O)O [C1, amphotericin B, reference compound]	256 µg/mL (≈ 277 µM)	128 µg/mL (≈ 139 µM)	2 µg/mL (≈ 2.16 µM)	1 µg/mL (≈ 1.08 µM)	1 µg/mL (≈ 1.08 µM)	0.5 µg/mL (≈ 0.541 µM)	128 µg/mL (≈ 139 µM)	64 µg/mL (≈ 69.3 µM)	128 µg/mL (≈ 139 µM)	64 µg/mL (≈ 69.3 µM)	64 µg/mL (≈ 69.3 µM)	32 µg/mL (≈ 34.6 µM)	256 µg/mL (≈ 277 µM)	128 µg/mL (≈ 139 µM)	
OC(Cn1cncn1)(Cn1cncn1)c1ccc(F)cc1F [C2, fluconazole, reference compound]	4 µg/mL (≈ 13.1 µM)	2 µg/mL (≈ 6.53 µM)	1 µg/mL (≈ 3.27 µM)	0.5 µg/mL (≈ 1.63 µM)	2 µg/mL (≈ 6.53 µM)	1 µg/mL (≈ 3.27 µM)	1 µg/mL (≈ 3.27 µM)	0.5 µg/mL (≈ 1.63 µM)	4 µg/mL (≈ 13.1 µM)	2 µg/mL (≈ 6.53 µM)	1 µg/mL (≈ 3.27 µM)	0.5 µg/mL (≈ 1.63 µM)	64 µg/mL (≈ 209 µM)	32 µg/mL (≈ 104 µM)	MFC/MIC ratio (Candida spp.; [19]): 2
CCC(C)n1ncn(-c2ccc(N3CCN(c4ccc(OCC5COC(Cn6cncn6)(c6ccc(Cl)cc6Cl)O5)cc4)CC3)cc2)c1=O (stereo not shown) [C3, itraconazole, reference compound]	8 µg/mL (≈ 11.3 µM)	4 µg/mL (≈ 5.67 µM)	1 µg/mL (≈ 1.42 µM)	0.5 µg/mL (≈ 0.709 µM)	1 µg/mL (≈ 1.42 µM)	1 µg/mL (≈ 1.42 µM)	4 µg/mL (≈ 5.67 µM)	2 µg/mL (≈ 2.83 µM)	8 µg/mL (≈ 11.3 µM)	4 µg/mL (≈ 5.67 µM)	1 µg/mL (≈ 1.42 µM)	0.5 µg/mL (≈ 0.709 µM)	16 µg/mL (≈ 22.7 µM)	8 µg/mL (≈ 11.3 µM)	
CC(C)=C1CC[C@@H](C)CC1=O [Compound 1, pulegone]															MFC (C. albicans (10,935)): 128 µg/mL (≈ 841 µM); MIC (C. albicans (10,935)): 64 µg/mL (≈ 420 µM); MFC (C. albicans (ATCC 7978); ATCC7978, 48 h): 128 µg/mL (≈ 841 µM); MIC (C. albicans (ATCC 7978); ATCC7978, 48 h): 128 µg/mL (≈ 841 µM); MFC ([3]; ATCC22019, 48 h): 256 µg/mL (≈ 1680 µM); MIC ([3]; ATCC22019, 48 h): 128 µg/mL (≈ 841 µM); MFC [4]: 128 µg/mL (≈ 841 µM); MIC [4]: 64 µg/mL (≈ 420 µM); MFC/MIC ratio (C. lusitaniae (2305)): 1; MFC (C. lusitaniae (2305)): 64 µg/mL (≈ 420 µM); MIC (C. lusitaniae (2305)): 64 µg/mL (≈ 420 µM); MFC (C. tropicalis (9841)): 256 µg/mL (≈ 1680 µM); MIC (C. tropicalis (9841)): 128 µg/mL (≈ 841 µM); MFC (C. glabrata (10,912)): 128 µg/mL (≈ 841 µM); MIC (C. glabrata (10,912)): 128 µg/mL (≈ 841 µM); MFC/MIC ratio (Candida spp.; [20]): 2
Cc1ccc(C(C)C)c(O)c1 [Compound 2, thymol]	32 µg/mL (≈ 213 µM)	32 µg/mL (≈ 213 µM)	64 µg/mL (≈ 426 µM)	64 µg/mL (≈ 426 µM)	64 µg/mL (≈ 426 µM)	32 µg/mL (≈ 213 µM)	64 µg/mL (≈ 426 µM)	32 µg/mL (≈ 213 µM)	64 µg/mL (≈ 426 µM)	32 µg/mL (≈ 213 µM)	128 µg/mL (≈ 852 µM)	64 µg/mL (≈ 426 µM)	64 µg/mL (≈ 426 µM)	64 µg/mL (≈ 426 µM)	MFC/MIC ratio (C. albicans (10,935); C. albicans (10,935)): 1; MFC/MIC ratio (C. albicans (ATCC 7978); C. albicans (ATCC 7978)): 1; MFC/MIC ratio (C. lusitaniae (2305)): 1; MFC/MIC ratio (C. glabrata (10,912); C. glabrata): 1; MIC (Candida spp.): 32 to 64 µg/mL (≈ 213 to 426 µM); MFC/MIC ratio (Candida spp.; [20]): 2
CC1CCC(C(C)C)C(=O)C1 (stereo not shown) [Compound 3, isomenthone]	128 µg/mL (≈ 830 µM)	128 µg/mL (≈ 830 µM)	128 µg/mL (≈ 830 µM)	128 µg/mL (≈ 830 µM)	128 µg/mL (≈ 830 µM)	128 µg/mL (≈ 830 µM)	128 µg/mL (≈ 830 µM)	128 µg/mL (≈ 830 µM)	64 µg/mL (≈ 415 µM)	64 µg/mL (≈ 415 µM)	128 µg/mL (≈ 830 µM)	64 µg/mL (≈ 415 µM)	128 µg/mL (≈ 830 µM)	128 µg/mL (≈ 830 µM)	MIC (Candida spp.): 128 µg/mL (≈ 830 µM); MFC/MIC ratio (Candida spp.; [19]): 1
